Data reported in PubChem BioAssay AID1845202 (Molecular Pharmacology Branch, DTP, NCI, 2023).

Test system: DMS 114 tumor spheroids, viability % test/control
Assay: Anticancer human tumor DMS 114 cell line growth inhibition;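 note: spheroids exposed to compounds for 7 days before read-out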;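 for viability, T/C: luminescence used as a proxy for viable cells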
Settings: spheroids with HUVEC and MSC; for IC50: curve of first compound; for viability, T/C: stronger effect = lower value
Outline: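 Complex spheroids of malignant cells with endothelial cells and mesenchymal stem cells; agents alone or combined, from near clinical Cmax (or 10 microM if unknown) down in half-log steps, 0.25% DMSO final.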

[1] = second compound 1 µM, first compound 0.0316 µM
[2] = second compound 1 µM, first compound 0.1 µM
[3] = second compound 1 µM, first compound 0.316 µM
[4] = second compound 1 µM, first compound 1 µM
[5] = second compound 1 µM, first compound 3.16 µM
[6] = second compound 1 µM, first compound 10 µM
[7] = second compound 3.16 µM, first compound 0.0316 µM
[8] = second compound 3.16 µM, first compound 0.1 µM
[9] = second compound 3.16 µM, first compound 0.316 µM
[10] = second compound 3.16 µM, first compound 1 µM
[11] = second compound 3.16 µM, first compound 3.16 µM
[12] = second compound 3.16 µM, first compound 10 µM
[13] = second compound 10 µM, first compound 0.0316 µM
[14] = second compound 10 µM, first compound 0.1 µM
[15] = second compound 10 µM, first compound 0.316 µM
[16] = second compound 10 µM, first compound 1 µM
[17] = second compound 10 µM, first compound 3.16 µM
[18] = second compound 10 µM, first compound 10 µM
[19] = second compound 31.6 µM, first compound 0.0316 µM
[20] = second compound 31.6 µM, first compound 0.1 µM
[21] = second compound 31.6 µM, first compound 0.316 µM
[22] = second compound 31.6 µM, first compound 1 µM
[23] = second compound 31.6 µM, first compound 3.16 µM
[24] = second compound 31.6 µM, first compound 10 µM
[25] = second compound 100 µM, first compound 0.0316 µM
[26] = second compound 100 µM, first compound 0.1 µM
[27] = second compound 100 µM, first compound 0.316 µM
[28] = second compound 100 µM, first compound 1 µM
[29] = second compound 100 µM, first compound 3.16 µM
[30] = second compound 100 µM, first compound 10 µM

SMILES | IC50 (second compound 1 µM) [µM] | IC50 (second compound 3.16 µM) [µM] | IC50 (second compound 10 µM) [µM] | IC50 (second compound 31.6 µM) [µM] | IC50 (second compound 100 µM) [µM] | viability, T/C [1] [%] | viability, T/C [2] [%] | viability, T/C [3] [%] | viability, T/C [4] [%] | viability, T/C [5] [%] | viability, T/C [6] [%] | viability, T/C [7] [%] | viability, T/C [8] [%] | viability, T/C [9] [%] | viability, T/C [10] [%] | viability, T/C [11] [%] | viability, T/C [12] [%] | viability, T/C [13] [%] | viability, T/C [14] [%] | viability, T/C [15] [%] | other results
CC(C)n1c(=O)n(C)c2cnc3cc(F)c(-c4ccc(OCCCN5CCCCC5)nc4)cc3c21 + Cn1nnc2c(C(N)=O)ncn2c1=O | 6.43 | 7.31 | 6.55 | 6.08 | 4.32 | 95.4 | 100 | 101 | 98.9 | 75.4 | 34.2 | 104 | 105 | 104 | 106 | 94.8 | 32.9 | 103 | 111 | 105 | viability, T/C [16]: 93.5%; viability, T/C [17]: 79%; viability, T/C [18]: 33.4%; viability, T/C [19]: 99.6%; viability, T/C [20]: 96%; viability, T/C [21]: 101%; viability, T/C [22]: 95.3%; viability, T/C [23]: 71.2%; viability, T/C [24]: 33.8%; viability, T/C [25]: 85.8%; viability, T/C [26]: 81.6%; viability, T/C [27]: 82.9%; viability, T/C [28]: 84.8%; viability, T/C [29]: 58.8%; viability, T/C [30]: 26.5%
CC1COCCN1c1cc(-c2ccnn2C)c2ccnc(-c3ccn[nH]3)c2n1 (stereo not given) + Cn1nnc2c(C(N)=O)ncn2c1=O | 0.0443 | 0.0558 | 0.0339 | < 0.0316 | < 0.0316 | 56.6 | 33.9 | 22.8 | 11.8 | 10.1 | 10.4 | 63 | 35.4 | 24.9 | 13.2 | 9.36 | 10.9 | 51 | 35.5 | 21.7 | viability, T/C [16]: 11.9%; viability, T/C [17]: 10.2%; viability, T/C [18]: 11.7%; viability, T/C [19]: 36.9%; viability, T/C [20]: 30.3%; viability, T/C [21]: 20.5%; viability, T/C [22]: 13.5%; viability, T/C [23]: 9.89%; viability, T/C [24]: 10.1%; viability, T/C [25]: 24%; viability, T/C [26]: 21.3%; viability, T/C [27]: 16.1%; viability, T/C [28]: 10.8%; viability, T/C [29]: 8.42%; viability, T/C [30]: 10.2%
COc1cc(C)[nH]c(=O)c1CN1CCc2c(Cl)cc(C(OC)C3COC3)c(Cl)c2C1=O (stereo not given) + Cn1nnc2c(C(N)=O)ncn2c1=O | > 10 | > 10 | > 10 | > 10 | > 10 | 103 | 93.3 | 82.7 | 78.4 | 73 | 71 | 109 | 97.1 | 91 | 82.3 | 76.5 | 71.7 | 115 | 99.5 | 93.1 | viability, T/C [16]: 82%; viability, T/C [17]: 80.5%; viability, T/C [18]: 70.1%; viability, T/C [19]: 102%; viability, T/C [20]: 103%; viability, T/C [21]: 86.5%; viability, T/C [22]: 84.2%; viability, T/C [23]: 70.1%; viability, T/C [24]: 67.5%; viability, T/C [25]: 90.7%; viability, T/C [26]: 95.6%; viability, T/C [27]: 73.3%; viability, T/C [28]: 64.3%; viability, T/C [29]: 61.2%; viability, T/C [30]: 57.1%
COc1ccc([C@@H](O)c2cc(-c3ncnc4cc(N5CCOCC5)ccc34)c(F)cc2Cl)nn1 + Cn1nnc2c(C(N)=O)ncn2c1=O | 8.43 | > 10 | 9.93 | 8.47 | 5.87 | 101 | 103 | 99.3 | 114 | 94.8 | 42.3 | 107 | 109 | 102 | 117 | 95.6 | 50.5 | 100 | 108 | 114 | viability, T/C [16]: 106%; viability, T/C [17]: 86.9%; viability, T/C [18]: 49.8%; viability, T/C [19]: 104%; viability, T/C [20]: 95.8%; viability, T/C [21]: 95.8%; viability, T/C [22]: 109%; viability, T/C [23]: 79.8%; viability, T/C [24]: 45%; viability, T/C [25]: 88.8%; viability, T/C [26]: 95.8%; viability, T/C [27]: 95.1%; viability, T/C [28]: 81.4%; viability, T/C [29]: 69.5%; viability, T/C [30]: 34%
Cc1cc(C)c(CNC(=O)c2cc(-c3ccc(CN4CCOCC4)cc3)cc3c2cnn3C2CCCC2)c(=O)[nH]1 + Cn1nnc2c(C(N)=O)ncn2c1=O | > 10 | > 10 | > 10 | > 10 | > 10 | 100 | 103 | 104 | 110 | 110 | 64.3 | 110 | 108 | 108 | 114 | 120 | 69.3 | 110 | 106 | 111 | viability, T/C [16]: 115%; viability, T/C [17]: 120%; viability, T/C [18]: 65.9%; viability, T/C [19]: 113%; viability, T/C [20]: 107%; viability, T/C [21]: 109%; viability, T/C [22]: 111%; viability, T/C [23]: 103%; viability, T/C [24]: 65.1%; viability, T/C [25]: 103%; viability, T/C [26]: 103%; viability, T/C [27]: 98.8%; viability, T/C [28]: 90.1%; viability, T/C [29]: 80.4%; viability, T/C [30]: 51.6%
[2H]c1nc(C)nc([2H])c1-c1cc(NC[C@@H](C)c2cccc3c(C(=O)NC)ccnc23)ncn1 + Cn1nnc2c(C(N)=O)ncn2c1=O | > 10 | > 10 | > 10 | > 10 | > 10 | 94.5 | 104 | 98.4 | 99.5 | 97.3 | 98.5 | 108 | 100 | 99.7 | 102 | 99.9 | 101 | 110 | 109 | 98.2 | viability, T/C [16]: 110%; viability, T/C [17]: 95.5%; viability, T/C [18]: 94.8%; viability, T/C [19]: 104%; viability, T/C [20]: 99%; viability, T/C [21]: 113%; viability, T/C [22]: 107%; viability, T/C [23]: 110%; viability, T/C [24]: 95.2%; viability, T/C [25]: 93.3%; viability, T/C [26]: 105%; viability, T/C [27]: 98.3%; viability, T/C [28]: 94.7%; viability, T/C [29]: 84.7%; viability, T/C [30]: 87.6%
